How the values were obtained:
Human δ-opioid (DOP) = target: T1, Human δ-opioid (DOP) (Homo sapiens, UniProt P41143); experiment: Radioligand binding, human δ-opioid (DOP) membranes, FlashPlate, [3H]-Bremazocine; conditions: compound at 10 μM; [3H]-Bremazocine, FlashPlate
T1 construct: purchased Perkin Elmer Biosignal
In short: (§1)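 Cloned human receptor membranes were coated onto FlashPlate wells and incubated with radioligand and compound (added from a 0.5 mM DMSO daughter plate) for 1 hour at room temperature in the dark. Scintillation counting gave percent inhibition, with DMSO defining total and reference ligand defining non-specific binding.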

Human κ-Opioid (KOP) = target: T2, Human κ-Opioid (KOP) (Homo sapiens, UniProt P41145); experiment: Radioligand binding, human κ-opioid (KOP) membranes, filtration, [3H]-Diprenorphine; conditions: compound at 10 μM; [3H]-Diprenorphine, filtration
T2 construct: purchased Perkin Elmer Biosignal
In short: (§2)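 Filtration binding on cloned human receptor membranes (1 Unit/well), [125I]-Substance P for NK1 and [3H]-Diprenorphine for KOP, 1 h at room temperature. Filters PEI-presoaked, washed with cold 50 mM Tris-HCl pH 7.4, counted by scintillation; percent inhibition calculated, reference ligand defining non-specific binding.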

Human Melanocortin (MC3) = target: T3, Human Melanocortin (MC3) (Homo sapiens, UniProt P41968); experiment: Radioligand binding, human melanocortin MC3 membranes, FlashPlate, [125I]-NDP-αMSH; conditions: compound at 10 μM; [125I]-NDP-αMSH, FlashPlate
T3 construct: purchased Perkin Elmer Biosignal
In short: as §1

Human Melanocortin (MC4) = target: T4, Human Melanocortin (MC4) (Homo sapiens, UniProt P32245); experiment: Radioligand binding, human melanocortin MC4 membranes, FlashPlate, [125I]-NDP-αMSH; conditions: compound at 10 μM; [125I]-NDP-αMSH, FlashPlate
T4 construct: purchased Perkin Elmer Biosignal
In short: as §1

Human melanocortin (MC5) = target: T5, Human melanocortin (MC5) (Homo sapiens, UniProt P33032); experiment: Radioligand binding, human melanocortin MC5 membranes, FlashPlate, [125I]-NDP-αMSH; conditions: compound at 10 μM; [125I]-NDP-αMSH, FlashPlate
T5 construct: purchased Perkin Elmer Biosignal
In short: as §1

[1] = target: T6, Human melanin-concentrating hormone (MCH1) (Homo sapiens, UniProt Q99705); experiment: Radioligand binding, human melanin-concentrating hormone MCH1 membranes, FlashPlate, [125I]-S36057; conditions: compound at 10 μM; [125I]-S36057, FlashPlate
T6 construct: purchased Perkin Elmer Biosignal
In short: as §1

Human μ-opioid (MOP) = target: T7, Human μ-opioid (MOP) (Homo sapiens, UniProt P35372); experiment: Radioligand binding, human μ-opioid (MOP) membranes, FlashPlate, [3H]-Naloxone; conditions: compound at 10 μM; [3H]-Naloxone, FlashPlate
T7 construct: purchased Perkin Elmer Biosignal
In short: as §1

Human neurokinin (NK1) = target: T8, Human neurokinin (NK1) (Homo sapiens, UniProt P25103); experiment: Radioligand binding, human neurokinin NK1 membranes, filtration, [125I]-Substance P; conditions: compound at 10 μM; [125I]-Substance P, filtration
T8 construct: purchased Perkin Elmer Biosignal
In short: as §2

[2] = target: T9, Human neuropeptide Y (NPY-Y1) (Homo sapiens, UniProt P25929); experiment: Radioligand binding, human neuropeptide Y NPY-Y1 membranes, FlashPlate, [125I]-PYY; conditions: compound at 10 μM; [125I]-PYY, FlashPlate
T9 construct: purchased Perkin Elmer Biosignal
T9 sequence (P25929 1-384): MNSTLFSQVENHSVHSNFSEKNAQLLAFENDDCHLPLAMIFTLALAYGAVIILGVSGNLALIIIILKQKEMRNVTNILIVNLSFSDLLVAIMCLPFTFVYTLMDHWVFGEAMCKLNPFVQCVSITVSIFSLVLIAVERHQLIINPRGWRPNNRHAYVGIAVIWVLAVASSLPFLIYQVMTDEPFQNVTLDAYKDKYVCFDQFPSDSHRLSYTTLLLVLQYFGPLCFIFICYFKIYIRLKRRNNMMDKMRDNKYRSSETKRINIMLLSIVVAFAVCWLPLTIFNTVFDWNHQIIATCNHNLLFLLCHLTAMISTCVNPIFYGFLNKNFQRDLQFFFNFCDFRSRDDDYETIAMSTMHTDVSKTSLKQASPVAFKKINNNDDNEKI
In short: as §1

Human opioid (ORL1) = target: T10, Human opioid (ORL1) (Homo sapiens, UniProt P41146); experiment: Radioligand binding, human opioid ORL1 membranes, FlashPlate, [125I]-Nociceptin; conditions: compound at 10 μM; [125I]-Nociceptin, FlashPlate
T10 construct: purchased Perkin Elmer Biosignal
In short: as §1

Mouse urotensin (mUR2) = target: T11, Mouse urotensin (mUR2) (Mus musculus, UniProt Q8VIH9); experiment: Radioligand binding, mouse urotensin mUR2 membranes, FlashPlate, [125I]-Urotensin II; conditions: compound at 10 μM; [125I]-Urotensin II, FlashPlate
T11 construct: purchased Perkin Elmer Biosignal
T11 sequence (Q8VIH9 1-385): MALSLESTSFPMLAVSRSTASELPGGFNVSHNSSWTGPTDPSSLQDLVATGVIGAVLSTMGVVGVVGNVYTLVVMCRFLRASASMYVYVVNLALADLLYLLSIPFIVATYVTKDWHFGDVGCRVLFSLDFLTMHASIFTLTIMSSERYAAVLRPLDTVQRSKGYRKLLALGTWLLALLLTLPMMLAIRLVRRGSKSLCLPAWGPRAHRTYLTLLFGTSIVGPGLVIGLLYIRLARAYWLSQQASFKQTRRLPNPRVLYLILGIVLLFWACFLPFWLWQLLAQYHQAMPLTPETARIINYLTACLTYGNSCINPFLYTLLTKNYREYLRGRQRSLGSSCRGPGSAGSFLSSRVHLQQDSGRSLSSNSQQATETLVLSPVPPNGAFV
In short: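 Cloned mouse urotensin (mUR2) receptor membranes from Perkin Elmer Biosignal were immobilized in FlashPlate microplates using a proprietary coating. Each well got 19.5 μl buffer, then 0.5 μl of DMSO, reference ligand, or compound. Adding 5 μl of [125I]-Urotensin II, diluted to 5× final concentration in binding buffer, started binding. Plates were sealed with TopSeal-A and incubated 1 hour at room temperature in the dark. Wells were counted for 30 seconds each on a TopCount after a 60-second delay, and percentage inhibition was calculated.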

T7 sequence (P35372 whole entry): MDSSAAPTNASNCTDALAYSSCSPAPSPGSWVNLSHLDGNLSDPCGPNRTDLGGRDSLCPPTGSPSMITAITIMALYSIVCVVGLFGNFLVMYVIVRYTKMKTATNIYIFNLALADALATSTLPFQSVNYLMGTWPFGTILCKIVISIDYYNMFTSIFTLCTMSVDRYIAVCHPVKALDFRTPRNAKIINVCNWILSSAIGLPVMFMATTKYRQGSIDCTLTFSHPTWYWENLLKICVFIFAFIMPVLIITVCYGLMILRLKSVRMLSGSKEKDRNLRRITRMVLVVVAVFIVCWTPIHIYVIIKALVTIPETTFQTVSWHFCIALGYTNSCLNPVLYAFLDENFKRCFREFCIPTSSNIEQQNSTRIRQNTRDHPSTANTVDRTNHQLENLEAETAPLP
T6 sequence (Q99705 whole entry): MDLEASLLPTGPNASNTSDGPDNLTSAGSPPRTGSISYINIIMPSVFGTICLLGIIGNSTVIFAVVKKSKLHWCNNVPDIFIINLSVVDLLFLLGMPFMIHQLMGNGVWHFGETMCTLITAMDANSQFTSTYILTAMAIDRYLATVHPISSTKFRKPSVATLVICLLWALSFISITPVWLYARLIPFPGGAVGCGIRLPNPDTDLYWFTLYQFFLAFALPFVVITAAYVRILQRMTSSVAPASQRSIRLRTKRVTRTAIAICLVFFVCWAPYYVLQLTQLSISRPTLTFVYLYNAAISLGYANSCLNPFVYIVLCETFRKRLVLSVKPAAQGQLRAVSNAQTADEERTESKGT
T10 sequence (P41146 whole entry): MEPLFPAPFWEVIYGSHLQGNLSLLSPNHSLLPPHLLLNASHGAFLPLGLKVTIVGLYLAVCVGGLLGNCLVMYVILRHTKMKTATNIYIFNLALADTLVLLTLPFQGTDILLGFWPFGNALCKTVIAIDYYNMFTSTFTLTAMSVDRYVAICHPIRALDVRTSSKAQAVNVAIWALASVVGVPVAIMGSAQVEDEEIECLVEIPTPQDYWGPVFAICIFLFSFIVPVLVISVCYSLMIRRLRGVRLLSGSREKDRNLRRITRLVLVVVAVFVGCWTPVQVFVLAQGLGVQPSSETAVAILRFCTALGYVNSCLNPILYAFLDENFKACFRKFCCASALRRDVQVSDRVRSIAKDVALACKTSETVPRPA
T8 sequence (P25103 whole entry): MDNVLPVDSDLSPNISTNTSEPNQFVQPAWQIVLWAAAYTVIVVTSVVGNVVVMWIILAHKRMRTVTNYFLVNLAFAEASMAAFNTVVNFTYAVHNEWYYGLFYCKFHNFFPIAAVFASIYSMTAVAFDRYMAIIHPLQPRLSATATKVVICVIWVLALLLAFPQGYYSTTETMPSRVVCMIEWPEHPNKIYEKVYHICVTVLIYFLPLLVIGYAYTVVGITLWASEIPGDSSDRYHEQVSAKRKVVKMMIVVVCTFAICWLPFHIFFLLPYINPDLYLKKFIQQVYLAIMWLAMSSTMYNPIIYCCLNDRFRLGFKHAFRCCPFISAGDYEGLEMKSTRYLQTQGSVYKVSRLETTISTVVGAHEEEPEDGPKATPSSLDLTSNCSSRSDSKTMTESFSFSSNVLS
T1 sequence (P41143 whole entry): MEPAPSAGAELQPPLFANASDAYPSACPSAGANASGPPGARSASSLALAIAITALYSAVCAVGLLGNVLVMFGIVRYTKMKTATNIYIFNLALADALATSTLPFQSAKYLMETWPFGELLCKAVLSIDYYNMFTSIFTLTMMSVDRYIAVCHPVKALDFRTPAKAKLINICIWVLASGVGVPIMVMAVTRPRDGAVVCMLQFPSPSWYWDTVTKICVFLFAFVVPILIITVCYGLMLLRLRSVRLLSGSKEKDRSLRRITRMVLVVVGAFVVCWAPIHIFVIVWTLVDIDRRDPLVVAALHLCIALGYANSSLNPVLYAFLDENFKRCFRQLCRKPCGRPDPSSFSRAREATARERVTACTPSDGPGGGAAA
T5 sequence (P33032 whole entry): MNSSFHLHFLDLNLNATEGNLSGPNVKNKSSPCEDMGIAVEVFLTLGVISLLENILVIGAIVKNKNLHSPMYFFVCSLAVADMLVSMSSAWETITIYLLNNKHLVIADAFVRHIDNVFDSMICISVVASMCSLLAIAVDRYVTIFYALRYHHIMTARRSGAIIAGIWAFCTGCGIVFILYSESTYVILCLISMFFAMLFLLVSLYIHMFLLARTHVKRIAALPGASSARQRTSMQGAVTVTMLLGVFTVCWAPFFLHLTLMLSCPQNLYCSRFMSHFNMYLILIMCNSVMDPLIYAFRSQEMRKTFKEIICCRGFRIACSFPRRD
T2 sequence (P41145 whole entry): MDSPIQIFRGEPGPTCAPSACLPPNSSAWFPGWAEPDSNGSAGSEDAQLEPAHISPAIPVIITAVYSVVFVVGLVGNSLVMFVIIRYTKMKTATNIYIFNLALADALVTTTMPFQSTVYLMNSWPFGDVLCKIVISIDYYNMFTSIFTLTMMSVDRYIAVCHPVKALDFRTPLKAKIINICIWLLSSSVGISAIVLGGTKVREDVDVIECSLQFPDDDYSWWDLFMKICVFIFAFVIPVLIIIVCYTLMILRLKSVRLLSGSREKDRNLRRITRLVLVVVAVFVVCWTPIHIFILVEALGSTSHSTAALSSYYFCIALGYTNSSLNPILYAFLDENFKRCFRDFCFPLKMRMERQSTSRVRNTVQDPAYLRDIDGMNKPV
T4 sequence (P32245 whole entry): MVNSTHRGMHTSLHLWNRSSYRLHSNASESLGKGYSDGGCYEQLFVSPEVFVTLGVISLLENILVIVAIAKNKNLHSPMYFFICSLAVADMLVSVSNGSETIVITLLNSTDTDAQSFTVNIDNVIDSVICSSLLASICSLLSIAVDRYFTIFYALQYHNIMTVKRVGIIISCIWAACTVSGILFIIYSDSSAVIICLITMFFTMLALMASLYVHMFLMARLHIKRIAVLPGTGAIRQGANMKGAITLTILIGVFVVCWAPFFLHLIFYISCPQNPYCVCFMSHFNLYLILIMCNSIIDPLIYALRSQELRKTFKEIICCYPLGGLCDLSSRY
T3 sequence (P41968 whole entry): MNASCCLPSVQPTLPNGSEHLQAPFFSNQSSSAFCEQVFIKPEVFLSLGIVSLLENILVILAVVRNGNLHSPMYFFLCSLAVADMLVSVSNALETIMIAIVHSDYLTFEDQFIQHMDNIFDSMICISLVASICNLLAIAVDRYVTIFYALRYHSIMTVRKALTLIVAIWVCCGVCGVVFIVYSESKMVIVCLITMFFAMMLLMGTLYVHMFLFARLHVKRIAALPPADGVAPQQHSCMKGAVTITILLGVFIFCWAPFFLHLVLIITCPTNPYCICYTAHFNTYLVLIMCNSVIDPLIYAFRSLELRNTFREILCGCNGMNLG

Compound: COCC1OC(OCc2ccccc2)C(NC(=O)CNC(=N)N)C(OCc2ccc3ccccc3c2)C1O (stereo not drawn) [compound 189]
- A1: inhibition of radioligand binding (Human δ-opioid (DOP)): − (“−” indicates less than 50% inhibition at 10 μM)
- A2: inhibition of radioligand binding (Human κ-Opioid (KOP)): − (“−” indicates less than 50% inhibition at 10 μM)
- A3: inhibition of radioligand binding (Human Melanocortin (MC3)): + (“+” indicates greater than 50% inhibition at 10 μM)
- A4: inhibition of radioligand binding (Human Melanocortin (MC4)): + (“+” indicates greater than 50% inhibition at 10 μM)
- A5: inhibition of radioligand binding (Human melanocortin (MC5)): + (“+” indicates greater than 50% inhibition at 10 μM)
- A6: inhibition of radioligand binding [1]: + (“+” indicates greater than 50% inhibition at 10 μM)
- A7: inhibition of radioligand binding (Human μ-opioid (MOP)): − (“−” indicates less than 50% inhibition at 10 μM)
- A8: inhibition of radioligand binding (Human neurokinin (NK1)): + (“+” indicates greater than 50% inhibition at 10 μM)
- A9: inhibition of radioligand binding [2]: − (“−” indicates less than 50% inhibition at 10 μM)
- A10: inhibition of radioligand binding (Human opioid (ORL1)): − (“−” indicates less than 50% inhibition at 10 μM)
- A11: inhibition of radioligand binding (Mouse urotensin (mUR2)): − (“−” indicates less than 50% inhibition at 10 μM)

Compound: COCC1OC(OCc2ccccc2)C(NC(=O)CCN)C(OCc2ccc3ccccc3c2)C1O (stereo not drawn) [compound 190]
- A1: inhibition of radioligand binding (Human δ-opioid (DOP)): − (“−” indicates less than 50% inhibition at 10 μM)
- A2: inhibition of radioligand binding (Human κ-Opioid (KOP)): − (“−” indicates less than 50% inhibition at 10 μM)
- A3: inhibition of radioligand binding (Human Melanocortin (MC3)): − (“−” indicates less than 50% inhibition at 10 μM)
- A4: inhibition of radioligand binding (Human Melanocortin (MC4)): − (“−” indicates less than 50% inhibition at 10 μM)
- A5: inhibition of radioligand binding (Human melanocortin (MC5)): + (“+” indicates greater than 50% inhibition at 10 μM)
- A6: inhibition of radioligand binding [1]: − (“−” indicates less than 50% inhibition at 10 μM)
- A7: inhibition of radioligand binding (Human μ-opioid (MOP)): − (“−” indicates less than 50% inhibition at 10 μM)
- A8: inhibition of radioligand binding (Human neurokinin (NK1)): + (“+” indicates greater than 50% inhibition at 10 μM)
- A9: inhibition of radioligand binding [2]: − (“−” indicates less than 50% inhibition at 10 μM)
- A10: inhibition of radioligand binding (Human opioid (ORL1)): − (“−” indicates less than 50% inhibition at 10 μM)
- A11: inhibition of radioligand binding (Mouse urotensin (mUR2)): − (“−” indicates less than 50% inhibition at 10 μM)

Compound: COCC1OC(OCc2ccccc2)C(NC(=O)CCNC(=N)N)C(OCc2ccc3ccccc3c2)C1O (stereo not drawn) [compound 191]
- A1: inhibition of radioligand binding (Human δ-opioid (DOP)): − (“−” indicates less than 50% inhibition at 10 μM)
- A2: inhibition of radioligand binding (Human κ-Opioid (KOP)): − (“−” indicates less than 50% inhibition at 10 μM)
- A3: inhibition of radioligand binding (Human Melanocortin (MC3)): − (“−” indicates less than 50% inhibition at 10 μM)
- A4: inhibition of radioligand binding (Human Melanocortin (MC4)): + (“+” indicates greater than 50% inhibition at 10 μM)
- A5: inhibition of radioligand binding (Human melanocortin (MC5)): + (“+” indicates greater than 50% inhibition at 10 μM)
- A6: inhibition of radioligand binding [1]: + (“+” indicates greater than 50% inhibition at 10 μM)
- A7: inhibition of radioligand binding (Human μ-opioid (MOP)): − (“−” indicates less than 50% inhibition at 10 μM)
- A8: inhibition of radioligand binding (Human neurokinin (NK1)): + (“+” indicates greater than 50% inhibition at 10 μM)
- A9: inhibition of radioligand binding [2]: − (“−” indicates less than 50% inhibition at 10 μM)
- A10: inhibition of radioligand binding (Human opioid (ORL1)): − (“−” indicates less than 50% inhibition at 10 μM)
- A11: inhibition of radioligand binding (Mouse urotensin (mUR2)): − (“−” indicates less than 50% inhibition at 10 μM)

Compound: COCC1OC(OCc2ccccc2)C(NC(=O)CCCN)C(OCc2ccc3ccccc3c2)C1O (stereo not drawn) [compound 192]
- A1: inhibition of radioligand binding (Human δ-opioid (DOP)): − (“−” indicates less than 50% inhibition at 10 μM)
- A2: inhibition of radioligand binding (Human κ-Opioid (KOP)): − (“−” indicates less than 50% inhibition at 10 μM)
- A3: inhibition of radioligand binding (Human Melanocortin (MC3)): − (“−” indicates less than 50% inhibition at 10 μM)
- A4: inhibition of radioligand binding (Human Melanocortin (MC4)): − (“−” indicates less than 50% inhibition at 10 μM)
- A5: inhibition of radioligand binding (Human melanocortin (MC5)): + (“+” indicates greater than 50% inhibition at 10 μM)
- A6: inhibition of radioligand binding [1]: − (“−” indicates less than 50% inhibition at 10 μM)
- A7: inhibition of radioligand binding (Human μ-opioid (MOP)): − (“−” indicates less than 50% inhibition at 10 μM)
- A8: inhibition of radioligand binding (Human neurokinin (NK1)): + (“+” indicates greater than 50% inhibition at 10 μM)
- A9: inhibition of radioligand binding [2]: − (“−” indicates less than 50% inhibition at 10 μM)
- A10: inhibition of radioligand binding (Human opioid (ORL1)): − (“−” indicates less than 50% inhibition at 10 μM)
- A11: inhibition of radioligand binding (Mouse urotensin (mUR2)): − (“−” indicates less than 50% inhibition at 10 μM)

Compound: COCC1OC(OCc2ccccc2)C(NC(=O)CCCNC(=N)N)C(OCc2ccc3ccccc3c2)C1O (stereo not drawn) [compound 193]
- A1: inhibition of radioligand binding (Human δ-opioid (DOP)): − (“−” indicates less than 50% inhibition at 10 μM)
- A2: inhibition of radioligand binding (Human κ-Opioid (KOP)): − (“−” indicates less than 50% inhibition at 10 μM)
- A3: inhibition of radioligand binding (Human Melanocortin (MC3)): + (“+” indicates greater than 50% inhibition at 10 μM)
- A4: inhibition of radioligand binding (Human Melanocortin (MC4)): + (“+” indicates greater than 50% inhibition at 10 μM)
- A5: inhibition of radioligand binding (Human melanocortin (MC5)): + (“+” indicates greater than 50% inhibition at 10 μM)
- A6: inhibition of radioligand binding [1]: + (“+” indicates greater than 50% inhibition at 10 μM)
- A7: inhibition of radioligand binding (Human μ-opioid (MOP)): − (“−” indicates less than 50% inhibition at 10 μM)
- A8: inhibition of radioligand binding (Human neurokinin (NK1)): + (“+” indicates greater than 50% inhibition at 10 μM)
- A9: inhibition of radioligand binding [2]: − (“−” indicates less than 50% inhibition at 10 μM)
- A10: inhibition of radioligand binding (Human opioid (ORL1)): − (“−” indicates less than 50% inhibition at 10 μM)
- A11: inhibition of radioligand binding (Mouse urotensin (mUR2)): − (“−” indicates less than 50% inhibition at 10 μM)

Compound: COCC1OC(OCc2ccc(Cl)cc2)C(NC(=O)CNC(=N)N)C(OCc2ccccc2)C1O (stereo not drawn) [compound 194]
- A1: inhibition of radioligand binding (Human δ-opioid (DOP)): − (“−” indicates less than 50% inhibition at 10 μM)
- A2: inhibition of radioligand binding (Human κ-Opioid (KOP)): − (“−” indicates less than 50% inhibition at 10 μM)
- A3: inhibition of radioligand binding (Human Melanocortin (MC3)): − (“−” indicates less than 50% inhibition at 10 μM)
- A4: inhibition of radioligand binding (Human Melanocortin (MC4)): + (“+” indicates greater than 50% inhibition at 10 μM)
- A5: inhibition of radioligand binding (Human melanocortin (MC5)): + (“+” indicates greater than 50% inhibition at 10 μM)
- A6: inhibition of radioligand binding [1]: − (“−” indicates less than 50% inhibition at 10 μM)
- A7: inhibition of radioligand binding (Human μ-opioid (MOP)): − (“−” indicates less than 50% inhibition at 10 μM)
- A8: inhibition of radioligand binding (Human neurokinin (NK1)): + (“+” indicates greater than 50% inhibition at 10 μM)
- A9: inhibition of radioligand binding [2]: − (“−” indicates less than 50% inhibition at 10 μM)
- A10: inhibition of radioligand binding (Human opioid (ORL1)): − (“−” indicates less than 50% inhibition at 10 μM)
- A11: inhibition of radioligand binding (Mouse urotensin (mUR2)): − (“−” indicates less than 50% inhibition at 10 μM)

From US20080009418A1, “Selective Inhibitors” (Alchemia LTD., priority 2004, published 2008)
